Reference: patent US20260285850A1, “SUBSTITUTED OXAZOLIDINONES AND IMIDAZOLINONES AS HERBICIDES” (FMC CORPORATION, priority 2023, published 2026)

Key:
Assay type in all cases: in vivo
[1] = system: oat, wild (wild oat, Avena fatua); experiment: Test A postemergence application, visual injury rating 0-100
Source text: (§1) Seeds of plant species selected from barnyardgrass (Echinochloa crus-galli), blackgrass (Alopecurus myosuroides), corn (Zea mays), foxtail, giant (giant foxtail, Setaria faberi), green foxtail (Setaria viridis), goosegrass (Eleusine indica), kochia (Bassia scoparia), oat, wild (wild oat, Avena fatua), palmer (palmer amaranth, palmer pigweed, Amaranthus palmeri), ragweed (common ragweed, Ambrosia artemisiifolia), ryegrass, Italian (italian ryegrass, Lolium multiflorum), soybean (Glycine max) and wheat (Triticum aestivum) were planted into a blend of loam soil and sand and treated preemergence with a directed soil spray using test chemicals formulated in a non-phytotoxic solvent mixture which included a surfactant.
(§2) At the same time, plants selected from these crops and weed species and also galium (catchweed bedstraw, Galium aparine) and horseweed (Erigeron canadensis) were planted in pots containing the same blend of loam soil and sand and treated with postemergence applications of test chemicals formulated in the same manner. Plants ranged in height from 2 to 10 cm and were in the one- to two-leaf stage for the postemergence treatment. Treated plants and untreated controls were maintained in a greenhouse for 10 days, after which time all treated plants were compared to untreated controls and visually evaluated for injury. Plant response ratings, summarized in Table A, are based on a 0 to 100 scale where 0 is no effect and 100 is complete control. A dash (-) response means no test result.

[2] = system: wheat (Triticum aestivum); experiment: as above
Source text: as §1, §2

corn (Zea mays) [3] = experiment: as above
Source text: as §1, §2

[4] = system: horseweed (Erigeron canadensis); experiment: as above
Source text: as §1, §2

soybean (Glycine max) [5] = experiment: as above
Source text: as §1, §2

[6] = system: barnyardgrass (Echinochloa crus-galli); experiment: as above
Source text: as §1, §2

[7] = system: green foxtail (Setaria viridis); experiment: as above
Source text: as §1, §2

[8] = system: palmer (palmer amaranth, palmer pigweed, Amaranthus palmeri); experiment: as above
Source text: as §1, §2

kochia (Bassia scoparia) [9] = experiment: as above
Source text: as §1, §2

[10] = system: ryegrass, Italian (italian ryegrass, Lolium multiflorum); experiment: as above
Source text: as §1, §2

[11] = system: blackgrass (Alopecurus myosuroides); experiment: as above
Source text: as §1, §2

[12] = system: ragweed (common ragweed, Ambrosia artemisiifolia); experiment: as above
Source text: as §1, §2

[13] = system: oat, wild (wild oat, Avena fatua); experiment: Test A preemergence soil spray, visual injury rating 0-100; conditions: 10 days
Method in brief: (§3)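 Plants in a loam and sand soil blend were treated with each test chemical, in a non-phytotoxic solvent system including surfactant, either sprayed on seeded soil before emergence or applied after emergence at the one- to two-leaf stage. Ten days later in the greenhouse, plants were compared with untreated controls and visually rated from 0 (no effect) to 100 (complete control).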

[14] = system: wheat (Triticum aestivum); experiment: as above; conditions: 10 days
Method in brief: as §3

corn (Zea mays) [15] = experiment: as above; conditions: 10 days
Method in brief: as §3

soybean (Glycine max) [16] = experiment: as above; conditions: 10 days
Method in brief: as §3

[17] = system: barnyardgrass (Echinochloa crus-galli); experiment: as above; conditions: 10 days
Method in brief: as §3

[18] = system: green foxtail (Setaria viridis); experiment: as above; conditions: 10 days
Method in brief: as §3

[19] = system: palmer (palmer amaranth, palmer pigweed, Amaranthus palmeri); experiment: as above; conditions: 10 days
Method in brief: as §3

kochia (Bassia scoparia) [20] = experiment: as above; conditions: 10 days
Method in brief: as §3

[21] = system: ryegrass, Italian (italian ryegrass, Lolium multiflorum); experiment: as above; conditions: 10 days
Method in brief: as §3

[22] = system: blackgrass (Alopecurus myosuroides); experiment: as above; conditions: 10 days
Method in brief: as §3

[23] = system: ragweed (common ragweed, Ambrosia artemisiifolia); experiment: as above; conditions: 10 days
Method in brief: as §3

rice (Oryza sativa) = experiment: Test B flooded paddy test, visual plant response rating 0-100; conditions: 250 g ai/ha, Flood, applied to paddy water, evaluated after 13 days
Protocol: (§4) Plant species in the flooded paddy test selected from barnyardgrass (Echinochloa crusgalli), ducksalad (Heteranthera limosa), rice (Oryza sativa), and sedge, umbrella (small-flower umbrella sedge, Cyperus difformis) were grown to the 2-leaf stage for testing. At time of treatment, test pots were flooded to 3 cm above the soil surface, treated by application of test compounds directly to the paddy water, and then maintained at that water depth for the duration of the test. Treated plants and controls were maintained in a greenhouse for 13 days, after which time all species were compared to controls and visually evaluated. […] A dash (-) response means no test result.

[24] = system: ducksalad (Heteranthera limosa); experiment: as above; conditions: 250 g ai/ha, Flood, applied to paddy water, evaluated after 13 days
Protocol: as §4

[25] = system: barnyardgrass (Echinochloa crusgalli); experiment: as above; conditions: 250 g ai/ha, Flood, applied to paddy water, evaluated after 13 days
Protocol: as §4

[26] = system: sedge, umbrella (small-flower umbrella sedge, Cyperus difformis); experiment: as above; conditions: 250 g ai/ha, Flood, applied to paddy water, evaluated after 13 days
Protocol: as §4

[27] = 62 g ai/ha, postemergence, 10 days, 0 = no effect, 100 = complete control
[28] = Postemergence, 16 g ai/ha, greenhouse 10 days, 0 no effect, 100 complete control
[29] = 62 g ai/ha, 0 = no effect, 100 = complete control

COC(=O)C1CC(NC(=O)C2(C)CN(c3cc(F)cc(Cl)c3)C(=O)O2)C1 (centres unmarked) [Compound 145]
Oat, Wild plant response rating (0-100) [1, 27]: 90 | Oat, Wild plant response rating (0 to 100 scale) [1, 28]: 90 | Wheat plant response rating (0-100) [2, 27]: 90 | Wheat plant response rating (0 to 100 scale) [2, 28]: 90 | Corn plant response rating (0-100) (corn (Zea mays) [3]; [27]): 100 | Corn plant response rating (0 to 100 scale) (corn (Zea mays) [3]; [28]): 100 | Horseweed plant response rating (0-100) [4, 27]: 30 | Horseweed plant response rating (0 to 100 scale) [4, 28]: 30 | Soybean plant response rating (0-100) (soybean (Glycine max) [5]; [27]): 80 | Soybean plant response rating (0 to 100 scale) (soybean (Glycine max) [5]; [28]): 50 | Barnyardgrass plant response rating (0-100) [6, 27]: 100 | Barnyardgrass plant response rating (0 to 100 scale) [6, 28]: 100 | Foxtail, Green plant response rating (0-100) [7, 27]: 90 | Foxtail, Green plant response rating (0 to 100 scale) [7, 28]: 90 | Pigweed, Palmer plant response rating (0-100) [8, 27]: 70 | Pigweed, Palmer plant response rating (0 to 100 scale) [8, 28]: 10 | Kochia plant response rating (0-100) (kochia (Bassia scoparia) [9]; [27]): 90 | Kochia plant response rating (0 to 100 scale) (kochia (Bassia scoparia) [9]; [28]): 60 | Ryegrass, Italian plant response rating (0-100) [10, 27]: 90 | Ryegrass, Italian plant response rating (0 to 100 scale) [10, 28]: 70 | Blackgrass plant response rating (0-100) [11, 27]: 100 | Blackgrass plant response rating (0 to 100 scale) [11, 28]: 90 | Ragweed plant response rating (0-100) [12, 27]: 20 | Ragweed plant response rating (0 to 100 scale) [12, 28]: 0 | Oat, Wild plant response rating ([13]; 16 g ai/ha, 0 to 100 scale): 20 | Oat, Wild plant response rating (0-100) [13, 29]: 80 | Wheat plant response rating ([14]; 16 g ai/ha, 0 to 100 scale): 80 | Wheat plant response rating (0-100) [14, 29]: 90 | Corn plant response rating (corn (Zea mays) [15]; 16 g ai/ha, 0 to 100 scale): 10 | Corn plant response rating (0-100) (corn (Zea mays) [15]; [29]): 80 | Soybean plant response rating (soybean (Glycine max) [16]; 16 g ai/ha, 0 to 100 scale): 0 | Soybean plant response rating (0-100) (soybean (Glycine max) [16]; [29]): 50 | Barnyardgrass plant response rating ([17]; 16 g ai/ha, 0 to 100 scale): 20 | Barnyardgrass plant response rating (0-100) [17, 29]: 80 | Foxtail, Green plant response rating ([18]; 16 g ai/ha, 0 to 100 scale): 10 | Foxtail, Green plant response rating (0-100) [18, 29]: 90 | Pigweed, Palmer plant response rating ([19]; 16 g ai/ha, 0 to 100 scale): 0 | Pigweed, Palmer plant response rating (0-100) [19, 29]: 0 | Kochia plant response rating (kochia (Bassia scoparia) [20]; 16 g ai/ha, 0 to 100 scale): 0 | Kochia plant response rating (0-100) (kochia (Bassia scoparia) [20]; [29]): 0 | Ryegrass, Italian plant response rating ([21]; 16 g ai/ha, 0 to 100 scale): 30 | Ryegrass, Italian plant response rating (0-100) [21, 29]: 100 | Blackgrass plant response rating ([22]; 16 g ai/ha, 0 to 100 scale): 0 | Blackgrass plant response rating (0-100) [22, 29]: 80 | Ragweed plant response rating ([23]; 16 g ai/ha, 0 to 100 scale): 0 | Ragweed plant response rating (0-100) [23, 29]: 0 | Plant response rating, Rice (0 to 100 scale, 0 is no effect and 100 is complete control) (rice (Oryza sativa)): 40 | Plant response rating, Ducksalad (0 to 100 scale, 0 is no effect and 100 is complete control) [24]: 60 | Plant response rating, Barnyardgrass (0 to 100 scale, 0 is no effect and 100 is complete control) [25]: 60 | Plant response rating, Sedge, Umbrella (0 to 100 scale, 0 is no effect and 100 is complete control) [26]: 50
